Measurements from ChEMBL document CHEMBL1148858, “Discovery of novel benzimidazolones as potent non-nucleoside reverse transcriptase inhibitors active against wild-type and mutant HIV-1 strains” (Bioorg Med Chem Lett, 2007).

Tests used:
[1] = system: Human immunodeficiency virus 1; assay: Antiviral activity against HIV1 with reverse transcriptase Y181C mutation in CEM cells assessed as inhibition of virus-induced giant cell formation; assay type: functional, organism-based; settings: Human immunodeficiency virus 1, CCRF-CEM
[2] = Selectivity index, ratio of CC50 for human MT4 cells to EC50 for HIV1; assay type: functional
[3] = system: Human immunodeficiency virus 1; assay: Antiviral activity against HIV1 assessed as reduction of virus-induced cytopathic effect in MT4 cells; assay type: functional, organism-based; settings: Human immunodeficiency virus 1, MT4
[4] = system: Human immunodeficiency virus 1; assay: Antiviral activity against HIV1 with reverse transcriptase K103N mutation in CEM cells assessed as inhibition of virus-induced giant cell formation; assay type: functional, organism-based; settings: Human immunodeficiency virus 1, CCRF-CEM
[5] = target: Human immunodeficiency virus type 1 reverse transcriptase (Human immunodeficiency virus 1, UniProt Q72547); assay: Inhibition of RNA dependent DNA polymerase activity of HIV1 recombinant reverse transcriptase
[6] = system: Human immunodeficiency virus 1; assay: Antiviral activity against HIV1 with reverse transcriptase E138K mutation in CEM cells assessed as inhibition of virus-induced giant cell formation; assay type: functional, organism-based; settings: Human immunodeficiency virus 1, CCRF-CEM
[7] = system: Human immunodeficiency virus 1; assay: Antiviral activity against HIV1 with reverse transcriptase Y188H mutation in CEM cells assessed as inhibition of virus-induced giant cell formation; assay type: functional, organism-based; settings: Human immunodeficiency virus 1, CCRF-CEM
[8] = system: Human immunodeficiency virus 1; assay: Antiviral activity against HIV1 3B in CEM cells assessed as inhibition of virus-induced giant cell formation; assay type: functional, organism-based; settings: Human immunodeficiency virus 1, 3B, CCRF-CEM
[9] = system: Human immunodeficiency virus 1; assay: Antiviral activity against HIV1 with reverse transcriptase L100I mutation in CEM cells assessed as inhibition of virus-induced giant cell formation; assay type: functional, organism-based; settings: Human immunodeficiency virus 1, CCRF-CEM
[10] = Cytotoxicity against MT4 cells assessed as reduction of cell viability; assay type: cell-based; settings: human

SMILES | EC50 [1] | Ratio CC50/EC50 [2] | EC50 [3] | EC50 [4] | IC50 [5] | EC50 [6] | EC50 [7] | EC50 [8] | EC50 [9] | CC50 [10]
Cc1cc(C)cc(S(=O)(=O)n2c(=O)[nH]c3ccc(Cl)cc32)c1 | 160 nM | 17846 | 2 nM | 29 nM | 5 nM | 15 nM | 1500 nM | 3 nM | 6 nM | 39000 nM
Cc1ccnc2c1NC(=O)c1cccnc1N2C1CC1 [NEVIRAPINE] | 2500 nM |  | 73 nM | 1300 nM |  | 207 nM | > 75000 nM | 30 nM | 199 nM | > 15000 nM
Cc1cc(C)cc(Cn2c(=O)[nH]c3ccc(Cl)cc32)c1 | > 3000 nM | 281 | 32 nM | ≥ 3000 nM | 150 nM | 665 nM | > 3000 nM | 81 nM | 49 nM | 8900 nM
O=c1[nH]c2ccc(Cl)cc2n1Cc1c(F)cccc1F | > 50000 nM | >1766 | 240 nM | > 50000 nM | 700 nM | 2500 nM | > 50000 nM | 374 nM | 3100 nM | > 424000 nM
O=C1Nc2ccc(Cl)cc2[C@@](C#CC2CC2)(C(F)(F)F)O1 [EFAVIRENZ] | 6.1 nM |  |  | 218 nM |  | 9.6 nM | 49 nM |  |  | > 6000 nM
